For test [1], the system named is HEK293. Description: inhibition of NOD1-driven NF-kB reporter – cell-based, luminescence, uHTS, primary screen (AID 1578). Format: functional. The following applies: Homo sapiens.
Test [2] deals with HEK293. Description: cells. Format: functional, cell-based. The following applies: Homo sapiens.
The subject of test [3] is HEK293. Description: cells. The test is classed as functional, cell-based. The following applies: Homo sapiens. The source holds these as a separate data set.
The target of test [4] is Nucleotide-binding oligomerization domain-containing protein 2 (Homo sapiens, UniProt Q9HC29). Description: inhibition of NOD2-driven NF-kB reporter – cell-based, luminescence, uHTS, HEK293 (AID 1566). Format: functional.
Test [5] relates to HEK293. Description: NOD2 signaling inhibitors in MDP-stimulated cells, cell-based, uHTS, luminescence (AID 2001). Format: functional. The note with it: Homo sapiens.
The subject of test [6] is HEK293. Description: cells. The test is classed as functional, cell-based. The following applies: Homo sapiens. This is another data set of the same source.
Test [7] deals with Dual specificity tyrosine-phosphorylation-regulated kinase 1A (Rattus norvegicus, UniProt Q63470). Format: biochemical, Homo sapiens.
Test [8] deals with Beta-2 adrenergic receptor (Homo sapiens, UniProt P07550). Description: ADRB2 activation measured by internalization – cell-based, FAP fluorogen, flow cytometry, cherry pick 1, dose response (AID 588763). The test is classed as functional.
For test [9], the target named is T1, High affinity choline transporter 1 (Homo sapiens, UniProt Q9GZV3).
T1 sequence (Q9GZV3 whole entry): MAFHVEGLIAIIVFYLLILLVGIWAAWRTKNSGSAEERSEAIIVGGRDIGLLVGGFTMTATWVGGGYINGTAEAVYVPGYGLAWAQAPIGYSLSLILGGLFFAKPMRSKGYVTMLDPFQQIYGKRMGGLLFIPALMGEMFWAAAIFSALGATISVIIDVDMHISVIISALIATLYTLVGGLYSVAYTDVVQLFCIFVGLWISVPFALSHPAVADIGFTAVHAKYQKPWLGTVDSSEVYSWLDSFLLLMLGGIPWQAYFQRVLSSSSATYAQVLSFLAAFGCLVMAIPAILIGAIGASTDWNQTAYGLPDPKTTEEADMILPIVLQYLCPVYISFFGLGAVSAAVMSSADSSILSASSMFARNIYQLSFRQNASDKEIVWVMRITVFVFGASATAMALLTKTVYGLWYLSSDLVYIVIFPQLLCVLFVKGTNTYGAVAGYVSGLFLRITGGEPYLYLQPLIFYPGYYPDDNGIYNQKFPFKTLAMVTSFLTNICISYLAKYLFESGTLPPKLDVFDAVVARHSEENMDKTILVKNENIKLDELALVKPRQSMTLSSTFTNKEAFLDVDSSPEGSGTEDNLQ
Description: human choline transporter blockers, potency – cell-based, 5-point CRC, membrane potential dye, dose response (AID 504840). Format: functional.

A further test has as its system Vero. Description: viability of Vero cells under compound – cytotoxicity control for flavivirus capping enzyme inhibitors (AID 588742). Format: functional. The following applies: Chlorocebus sabaeus.
Test [10] is described as follows: blockers of HIV-1 envelope-mediated cell-cell fusion – cherry-pick, dose response (AID 652057). Format: functional, cell-based.
Test [11] can be described thus: blockers of HIV-1 ZM109 envelope-driven cell-cell fusion – HeLa effector, CEM target cells, luciferase, cherry-pick, dose response (AID 652058).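 Further: luciferase signal from HIV-1 Env mediated cell-cell fusion of effector and target cells.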 Format: functional, cell-based.
A short description of test [12]: off-target signal loss in HeLa-CEM21 co-culture – HeLa F-luc CTL cells, cherry-picked, counter-screen for HIV-1 Env fusion inhibitor project, dose response (AID 652040).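 Further: potency for signal decrease marking cytotoxic or nonspecific inhibition.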 The test is classed as functional, cell-based.
The nature of test [13]: HIV-1 AD8 envelope cell-cell fusion blockers – cherry-pick, dose response (AID 652062).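 Further: luciferase signal from cell-cell fusion driven by HIV-1 clade B AD8 Env; potency is for inhibitors of fusion seen as a drop in luminescence.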 The test is classed as functional, cell-based.
For test [14], the system named is HEK293. Description: cells. The note with it: Homo sapiens.
Test [15] concerns HEK293. Description: cells. The note with it: Homo sapiens. This is another data set of the same source.
For test [16], the target named is T2, Heat shock factor protein 1 (Mus musculus, UniProt P38532).
T2 sequence (P38532 whole entry): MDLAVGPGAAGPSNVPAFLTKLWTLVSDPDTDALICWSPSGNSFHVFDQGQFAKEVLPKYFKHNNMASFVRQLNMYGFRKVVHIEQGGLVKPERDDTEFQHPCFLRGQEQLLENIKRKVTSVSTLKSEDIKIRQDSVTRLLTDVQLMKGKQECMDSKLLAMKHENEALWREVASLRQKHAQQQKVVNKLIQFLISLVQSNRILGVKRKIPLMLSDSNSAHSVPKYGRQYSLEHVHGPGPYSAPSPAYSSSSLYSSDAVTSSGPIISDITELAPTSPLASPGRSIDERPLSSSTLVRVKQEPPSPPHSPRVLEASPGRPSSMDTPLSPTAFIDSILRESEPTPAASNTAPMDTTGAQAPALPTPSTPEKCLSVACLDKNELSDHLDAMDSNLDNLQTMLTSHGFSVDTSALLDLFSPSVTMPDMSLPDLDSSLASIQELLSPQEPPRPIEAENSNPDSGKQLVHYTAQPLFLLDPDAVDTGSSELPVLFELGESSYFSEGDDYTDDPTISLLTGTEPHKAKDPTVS
Description: enhancement of HSF1-driven luciferase signal – cell-based, NIH3T3, luminescence, dose retest, confirmation (AID 435004).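 Further: stress induced by proteasome inhibitor MG132 added 30 min after compound; luciferase reporter driven by HSF1 response element in NIH3T3 cells; actives raise luminescence as potentiators of the MG132 stress response.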 Format: functional.

Molecules are shown by their SMILES. The source made the active and inactive calls.

Sequence of Beta-2 adrenergic receptor (P07550 whole entry): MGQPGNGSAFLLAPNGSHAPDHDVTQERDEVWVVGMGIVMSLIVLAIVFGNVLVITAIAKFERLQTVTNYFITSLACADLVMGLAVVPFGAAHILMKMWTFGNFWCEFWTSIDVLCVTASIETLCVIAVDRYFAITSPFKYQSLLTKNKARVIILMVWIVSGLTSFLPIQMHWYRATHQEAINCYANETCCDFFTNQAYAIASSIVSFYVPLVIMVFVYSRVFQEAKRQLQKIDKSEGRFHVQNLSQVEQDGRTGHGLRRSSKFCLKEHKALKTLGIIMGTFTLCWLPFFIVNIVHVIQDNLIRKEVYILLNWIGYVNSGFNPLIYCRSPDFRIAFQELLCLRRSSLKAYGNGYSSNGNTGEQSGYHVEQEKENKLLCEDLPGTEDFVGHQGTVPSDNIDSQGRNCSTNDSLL
Sequence of Nucleotide-binding oligomerization domain-containing protein 2 (Q9HC29 whole entry, the tested form may be a part): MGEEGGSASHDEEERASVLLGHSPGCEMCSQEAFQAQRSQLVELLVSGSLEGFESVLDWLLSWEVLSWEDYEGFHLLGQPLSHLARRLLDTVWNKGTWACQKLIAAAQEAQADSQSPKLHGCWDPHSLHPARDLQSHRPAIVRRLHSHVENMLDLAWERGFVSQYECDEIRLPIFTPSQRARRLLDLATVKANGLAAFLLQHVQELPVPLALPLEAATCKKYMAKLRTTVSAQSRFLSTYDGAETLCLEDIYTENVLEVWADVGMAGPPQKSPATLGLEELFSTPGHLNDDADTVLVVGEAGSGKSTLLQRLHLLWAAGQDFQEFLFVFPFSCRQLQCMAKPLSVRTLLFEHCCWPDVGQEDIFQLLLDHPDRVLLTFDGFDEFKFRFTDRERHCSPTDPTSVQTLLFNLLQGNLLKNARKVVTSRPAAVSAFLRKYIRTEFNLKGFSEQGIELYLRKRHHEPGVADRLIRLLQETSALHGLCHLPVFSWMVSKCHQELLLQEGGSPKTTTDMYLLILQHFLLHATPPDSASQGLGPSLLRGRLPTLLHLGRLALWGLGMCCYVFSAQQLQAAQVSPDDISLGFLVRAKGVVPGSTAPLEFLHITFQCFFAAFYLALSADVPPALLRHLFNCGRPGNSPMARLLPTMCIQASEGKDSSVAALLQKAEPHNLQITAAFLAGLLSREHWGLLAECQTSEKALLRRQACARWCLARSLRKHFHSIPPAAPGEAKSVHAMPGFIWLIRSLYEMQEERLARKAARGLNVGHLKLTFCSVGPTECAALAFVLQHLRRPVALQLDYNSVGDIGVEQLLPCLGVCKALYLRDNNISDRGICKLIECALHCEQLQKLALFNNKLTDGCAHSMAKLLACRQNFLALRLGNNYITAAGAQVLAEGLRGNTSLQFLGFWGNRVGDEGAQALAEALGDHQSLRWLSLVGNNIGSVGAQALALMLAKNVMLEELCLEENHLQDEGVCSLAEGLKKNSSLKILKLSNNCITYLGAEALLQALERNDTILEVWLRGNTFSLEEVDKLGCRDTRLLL

For `CN(C)S(=O)(=O)c1cccc(NC(S)=Nc2cccc3cnccc23)c1`, the EC50 is 10.6 µM (active) in the test with HEK293 [1] and 9.33 µM (active) in [4]. Moreover, the IC50 in the test with HEK293 [2] is 3.39 µM (active); with HEK293 [3], 13.4 µM (active); in the test on HEK293 [5], 4.64 µM (active); in the test with HEK293 [6], > 20 µM (inactive). Moreover, in test [7], the AC50 was 3.86 µM (active).
For `CCN(CC)S(=O)(=O)c1cc(NC(=O)C2=COCCO2)ccc1Cl`, in [8], the half-maximal effective concentration (EC50) is 0.038 µM (active).
With `Cc1ccccc1N1C(=O)NC(=O)/C(=C\c2c(-c3ccccc3)[nH]c3ccccc23)C1=O`, the EC50 with HEK293 [1] was 6.37 µM (active). In addition, the half-inhibitory concentration (IC50) is 8.69 µM (active) in the test with HEK293 [2], > 20 µM (inactive) in the test with HEK293 [3], 15.4 µM (inactive) in the test with HEK293 [5] and 11 µM (active) in [9]. Further, the CC50 with Vero is 23.2 µM (active).
Take `CCN(C[C@H]1N[C@@](CC)(C(=O)OC)[C@H]2C(=O)N(Cc3ccccc3)C(=O)[C@@H]12)S(=O)(=O)c1ccc(OC)cc1`: the AC50 in [10] is 1.64 µM (active); in test [11] it was 3.76 µM (active); in test [12], 1.89 µM (active); in test [13], 7.2 µM (active). For the same compound, the EC50 in the test on HEK293 [14] and in the test on HEK293 [15] was > 59.6 µM (inactive) each time.
For the compound `COc1ccc(/C=c2\s/c(=C\C(=O)C(C)(C)C)[nH]c2=O)cc1O`, the EC50 in test [16] is 41.8 µM (active). For the same compound, the half-maximal activity concentration (AC50) in test [7] is 4.65 µM (active).

The EC50 is the concentration at which the effect is half-maximal. As usually defined, the IC50 is the midpoint of a concentration-inhibition curve. By AC50 is commonly meant the concentration giving half of the maximal activity seen. Usually CC50 stands for the concentration at which the toxic effect on the cells reaches its halfway point.
